From US5541187A, “6-heterocycyclyl pyrazolo[3,4-d]pyrimidin-4-ones and compositions and method of use thereof” (Sterling Winthrop Inc., priority 1993, dated 1996)
“And” between values parts separate entries of the source, which are not always exact repeats. Identical values can stand only once.

Columns and labels:
[1] = tested on: aortic rings (aortic smooth muscle strips); experiment: Procedure 1: in vitro reversal of nitroglycerin tolerance, relaxation of aortic rings; assay type: cell-based, Male Sprague-Dawley rats; conditions: Rattus norvegicus, n=8, mean ±S.E.M.
Method: Male Sprague-Dawley rats (250-350 g body weight) were deeply anesthetized with pentobarbital (50 mg/kg) and then euthanized by exsanguination. The thoracic and abdominal cavities were immediately opened and the aorta was removed. In order to remove the influence of endogenous endothelial relaxing factor (EDRF), the entire length of the aorta was functionally denuded of the endothelial layer by gently scraping the luminal surface with a solid polyethylene catheter. The effectiveness of this procedure was tested in each preparation at the end of the experiment by measuring the vasorelaxant response to 1 μM carbachol, a stimulator of EDRF release. […] Maximal change in contractile tension over a series of nine consecutive 10 minute intervals was recorded and expressed as percent relaxation relative to post pre-treatment, phenylephrine-induced tension. Mean EC50 values were calculated from percent relaxation of individual tissues using a statistical program according to Tallarida and Murray, (Manual of Pharmacologic Calculations with Computer Programs, Springer-Verlag, N.Y. 1987) and are expressed as mean ±S.E.M.

[2] = tested on: Spontaneously hypertensive rats; experiment: Procedure 2: in vivo reversal of nitroglycerin tolerance, mean arterial pressure; parameters: species or system rat (spontaneously hypertensive rats); conditions: for change in MAP in response to nitroglycerin injection: nitroglycerin 10 μg/kg i.v.
Method: Spontaneously hypertensive rats (16-19 weeks of age) were made nitroglycerin tolerant by injecting […] nitroglycerin s.c., 3-times/day for 3 days. While conscious and freely moving, the decrease in mean arterial pressure (MAP) in response to a challenge dose of nitroglycerin (10 μg/kg, i.v. bolus) was utilized to confirm tolerance.

[3] = tested on: Spontaneously hypertensive rats (SHR); experiment: Antihypertensive activity in conscious spontaneously hypertensive rats (SHR), iv; assay type: in vivo; conditions: Rattus norvegicus, 5 min; for ED25: read-out: ED25 (mean arterial pressure)
Method: After a 2 day recovery from surgery, three baseline blood pressure measurements were made at 5 min intervals in conscious SHR. Compounds to be tested or vehicle were then administered intravenously in a dose-dependent manner (0.3-10 mg base/kg) while arterial pressure was recorded continuously on a polygraph. The mean arterial pressure response was measured 5 minutes after the administration of each dose of the test compound and the next dose given in a cumulative dose fashion. The response to each dose of the test compound was calculated as the difference from the mean of the three baseline measurements.

[4] = tested on: cGMP-PDE I; experiment: cGMP-PDE I inhibitory activity (cyclic nucleotide hydrolysis, isolated PDE isozyme); assay type: biochemical, various animal species and man; conditions: for IC50: values marked * are from two separate experimental runs
Method: Multiple isozymic forms of cyclic nucleotide phosphodiesterase (PDE) have been identified in mammalian cells. […] Elevation of intracellular cGMP in vascular smooth muscle triggers a cascade of events that leads to a reduction in muscle tone while elevations in renal tubule cell cGMP stimulates natriuresis and diuresis. Vascular smooth muscle and renal cells contain a phosphodiesterase isozyme that has a low Km (1 μM) for the hydrolysis of cGMP. This isozyme has been referred to as the cGMP-PDE or cGMP-PDE I since it elutes from an anion-exchange sepharose resin in the first peak of PDE activity at a sodium acetate concentration between 150-200 mM. Thus inhibition of the cGMP-PDE isozyme is a viable subcellular mechanism by which increases in cGMP can produce a reduction in total peripheral resistance and a stimulation of natriuresis and diuresis. The development of cGMP-PDE inhibitors represents an approach for the discovery of agents useful for treating heart failure and hypertension. For example, compounds having high inhibitory potency for the cGMP-PDE are expected to lower blood pressure and induce natriuresis and diuresis.
The cGMP-PDE and other PDE isozymes were isolated from cardiovascular tissues (heart and aorta) of various animal species and man by anion-exchange and affinity chromatography as described by Silver et al., Sec. Messeng. Phos. 13:13-25, 1991; PDE activity, in the presence and absence of test compounds was determined essentially as described by Thompson et al., Adv. Cyclic Nucleotide Res. 10:69-92. To determine the potency and selectivity of compounds as PDE inhibitors, compounds are screened for their effect on cyclic nucleotide hydrolysis at 10 μM. If ≥50% inhibition of PDE activity is observed, an IC50 value (concentration of compound causing 50% reduction in PDE activity) and corresponding 95% confidence intervals are generated. The IC50 values are calculated from concentration-response curves as described by Tallarida and Murray, Manual of Pharmacologic Calculations with Computer Programs, Procedure 8, Graded Dose-response, pp. 14-19, Springer-Verlag, N.Y., 1981.

[5] = 5 minutes after dose, cumulative dosing, read-out: % change in mean arterial pressure

Row | Compound | ED25 [3] [mg/kg] | IC50 [4] | change in vivo at 10 mg/kg [3, 5] [%] | Percent Inhibition cGMP-PDE I ([4]; 0.1 μM) [%] | other results
1 | O=[N+]([O-])OCC(CO[N+](=O)[O-])O[N+](=O)[O-] [nitroglycerin, reference compound] |  |  |  |  | EC50 ([1]; 1 h, tolerant strips, pre-exposed to 550 μM nitroglycerin for 60 minutes, p <0.01): 1550 ± 637 nM; EC50 ([1]; vehicle treated, control strips): 77 ± 16 nM; change in MAP in response to nitroglycerin injection ([2]; non-tolerant rats (n=6)): -19 mmHg; change in MAP in response to nitroglycerin injection ([2]; tolerant rats (n=11)): -11 mmHg
2 | Cc1nn(C2CCCC2)c2nc(-c3ccncc3)[nH]c(=O)c12 [Example 83] | 1 | 370 nM |  |  | change in MAP at threshold dose of the compound ([2]; 1 mg/kg, i.v., threshold dose): approximately 10 mmHg; change in MAP in response to nitroglycerin injection after pretreatment with the compound ([2]; nitroglycerin tolerant rats (n=12), compound 1 mg/kg i.v., then nitroglycerin 10 μg/kg): -35 mmHg
3 | CCc1nn(C2CCCC2)c2nc(-c3ccncc3)[nH]c(=O)c12 [Example 75] | 1.7 | 450 nM and 370 nM |  |  | 
4 | Cc1[nH]n(C2CCCC2)c2nc(-c3ccnc4ccccc34)nc(=O)c1-2 [Example 13b, 1-Cyclopentyl-3-methyl-6-(4-quinolinyl)-pyrazolo [3,4-d]-pyrimidin-4-one] |  | 97 nM |  |  | change in vivo at 1 mg/kg ([3]; 1 mg/kg, 5 minutes after dose, cumulative dosing, read-out: % change in mean arterial pressure): -17%; change in vivo at 3 mg/kg [3, 5]: -14%
5 | Cc1nn(C2CCCC2)c2nc(-c3cccnc3)[nH]c(=O)c12 [Example 98] | 4.1 | 560 nM |  |  | 
6 | CC(C)(C)n1[nH]c(Cc2ccncc2)c2c(=O)nc(-c3ccncc3)nc1-2 [Example 123d, 1-tert-butyl-3-(4-pyridylmethyl)-6-(4-pyridyl)-pyrazolo[3,4-d]pyrimidin-4-one] |  | 120 nM | -7 | 55 | Percent Inhibition cGMP-PDE I ([4]; 1 μM): 90%
7 | Cc1nn(C(C)(C)C)c2nc(-c3ccncc3)[nH]c(=O)c12 [Example 93] | 6.5 | 380 nM |  |  | 
8 | Cc1[nH]n(C2CCCC2)c2nc(-c3ccc4ncccc4c3)nc(=O)c1-2 [Example 14c, 1-Cyclopentyl-3-methyl-6-(6-quinolinyl)-pyrazolo [3,4-d]-pyrimidin-4-one] | 7.8 | 780 nM |  |  | 
9 | CCOc1cnccc1-c1nc2n(C3CCCC3)[nH]c(C(F)(F)F)c-2c(=O)n1 [Example 127c, 1-Cyclopentyl-3-trifluoromethyl-6-(3-ethoxy-4-pyridyl)pyrazolo[3,4-d]pyrimidin-4-one] |  | 1.8 nM and 2.5 nM | -14 | 93 | Percent Inhibition cGMP-PDE I ([4]; 0.01 μM): 79%
10 | COc1ccc(Cc2[nH]n(C(C)(C)C)c3nc(-c4ccncc4)nc(=O)c2-3)cc1OC [Example 4e, 1-tert-Butyl-3-(3,4-dimethoxybenzyl)-6-(4-pyridyl) pyrazolo[3,4-d]pyrimidin-4-one] |  | 6 nM | -2 |  | Percent Inhibition cGMP-PDE I ([4]; 0.01 μM): 69%
11 | CCOc1cnccc1-c1nc2n(C3CCCC3)[nH]c(CC)c-2c(=O)n1 [Example 119d, 1-Cyclopentyl-3-ethyl-6-(3-ethoxy-4-pyridyl)pyrazolo[3,4-d]pyrimidin-4-one] | 4.8 | 1.6 nM | -36 | 90 | change in vivo at 3 mg/kg [3, 5]: -24%
12 | CCc1nn(C2CCCC2)c2nc(-c3ccnc(OCCN4CCOCC4)c3)[nH]c(=O)c12 [Example 124c, hydrate] | 10.1 | 150 nM | -24 | 50 | change in vivo at 3 mg/kg [3, 5]: -14%; Percent Inhibition cGMP-PDE I ([4]; 0.01 μM): 19%; Percent Inhibition cGMP-PDE I ([4]; 1 μM): 86%
